Columns and labels:
[1] = biological target: T1, SphK1 R185A (Homo sapiens, UniProt Q9NYA1, R185A); assay: filter binding assay of [3H] acetyl-CoA to SphK1
T1 construct: His (N); made in house
Excerpt: (§1) Single point mutations in SphK1 (R56A, R57A, R24A, R185A, D178A, and F192A) and COX2 (S565A, N181A, T564A, and S567A) were generated using the In-Fusion Cloning Kits (Clontech) and ORF cDNA expression plasmids of human SphK1 and COX2 gene (Sino Biological Inc, HG15679-NH and HG12036-NH), according to the manufacturer’s instructions. The forward and reverse primers described in Supplementary Table 4. The SphK1 WT, SphK1 mutants, COX2 WT, and COX2 mutant plasmids were transformed in the One shot TOP 10 competent cell (Invitrogen). The bacteria were grown in Luria-Bertani (LB, Invitrogen) plates supplemented with 50 μg ml^−1 kanamycin (Sigma-Aldrich) at 37 °C. The bacterial cell pellets were resuspended in lysis buffer containing 20 mM sodium phosphate (GE Healthcare), 500 mM NaCl (GE Healthcare), 20 mM imidazole (pH 7.4) (GE Healthcare), 0.2 mg ml^−1 lysozyme (Sigma-Aldrich), 20 μg ml^−1 DNase I (Roche), 1 mM MgCl2 (Sigma-Aldrich), and 1 mM PMSF (Sigma-Aldrich) before being lysed by sonication and clarified by centrifugation at 15,493×g for 10 min. Proteins were purified from the soluble fraction using His-Spin Trap columns (GE Healthcare) and the binding and acetylation assays were performed.
(§2) Briefly, SphK1 WT and mutant enzymes (1 mU) were resuspended in 100 μl reaction buffer (20 mM HEPES; pH 7.4, 50 mM NaCl, 10 mM MgCl2, 1 mM EGTA, 0.02% Triton-X100, and 100 μM sphingosine, all from Sigma-Aldrich). […] Briefly, COX2 WT and mutant enzymes (1 mU) were resuspended in 100 μl reaction buffer (20 mM HEPES; pH 7.4, 50 mM NaCl, 10 mM MgCl2, 1 mM EGTA, and 0.02% Triton-X100, all from Sigma-Aldrich). Reactions were initiated by adding [^14C] N-AS (1–200 μM (0.1–20 μCi), ARC UK Ltd, ARC-1024) and incubated at 37 °C for 1 h. The reactions were terminated by adding 100 μl of ice-cold reaction buffer containing 5 mM cold N-AS and immediately filtered through P30 filtermat (Perkin-Elmer), followed by five washes.
(§3) The binding velocity was plotted and the Kcat and KM values were calculated from the Michaelis-Menten analysis using the Sigma-plot program (ver 10.0, Systat software Inc.).

[2] = biological target: T2, SphK1 R24A (Homo sapiens, UniProt Q9NYA1, R24A); assay: filter binding assay of [3H] acetyl-CoA to SphK1
T2 construct: His (N); made in house
T2 sequence (Q9NYA1 whole entry R24A): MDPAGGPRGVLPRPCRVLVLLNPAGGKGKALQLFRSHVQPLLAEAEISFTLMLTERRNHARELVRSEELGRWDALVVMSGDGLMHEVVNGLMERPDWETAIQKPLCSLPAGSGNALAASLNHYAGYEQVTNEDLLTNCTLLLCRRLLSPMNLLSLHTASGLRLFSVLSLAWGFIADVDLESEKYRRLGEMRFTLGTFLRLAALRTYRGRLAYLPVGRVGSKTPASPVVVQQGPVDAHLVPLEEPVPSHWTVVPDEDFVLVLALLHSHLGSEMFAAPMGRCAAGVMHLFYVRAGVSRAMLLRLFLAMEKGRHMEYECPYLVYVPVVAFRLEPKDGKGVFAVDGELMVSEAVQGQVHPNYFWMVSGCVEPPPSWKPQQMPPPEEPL
Excerpt: as §1, §2, §3

[3] = biological target: T3, SphK1 R56A (Homo sapiens, UniProt Q9NYA1, R56A); assay: filter binding assay of [3H] acetyl-CoA to SphK1
T3 construct: His (N); made in house
T3 sequence (Q9NYA1 whole entry R56A): as the sequence (Q9NYA1 whole entry R24A) above, with A24R, R56A counted along it
Excerpt: as §1, §2, §3

[4] = biological target: T4, SphK1 R57A (Homo sapiens, UniProt Q9NYA1, R57A); assay: filter binding assay of [3H] acetyl-CoA to SphK1
T4 construct: His (N); made in house
T4 sequence (Q9NYA1 whole entry R57A): as the sequence (Q9NYA1 whole entry R24A) above, with A24R, R57A counted along it
Excerpt: as §1, §2, §3

[5] = tested on: APP/PS1 mice; assay: Imaris-based morphology of microglia (Supplementary Fig 5b; Additional Fig 2); assay type: in vivo, mouse
Description: Thioflavin S (Sigma-Aldrich) staining was carried out according to previously described procedures. We used 6E10 (mouse, 1:100, Signet, SIG39300), anti-20G10 (mouse, 1:1000, provided by D. R. Howlett, GlaxoSmithKline, Harlow, Essex, UK) for Aβ42, anti-G30 (rabbit, 1:1000, provided by D. R. Howlett) for Aβ40, SMA (mouse, 1:400, Sigma-Aldrich, A2547), AT8 (mouse, 1:500, Thermo Fisher Scientific, MN1020), Caspase-3 (mouse, 1:200, Novus Biologicals, NB100-56708), ac-S565 (rabbit, 1:100), COX2 (mouse, 1:250, Thermo Fisher Scientific, 35-8200), Iba1 (rabbit, 1:500, Wako, 019-19941 and goat, Abcam, ab5076), NeuN (mouse, 1:500, Millipore, MAB177), GFAP (rabbit, 1:500, Dako, N1506 and chicken, 1:500, Abcam, ab4674), and Lamp1 (mouse, 1:200, Abcam, ab24170). The sections were analyzed with a laser-scanning confocal microscope (FV3000; Olympus) or with a BX51 microscope (Olympus). MetaMorph software (Molecular Devices) was used to quantification. Three-dimensional reconstruction of microglia was recorded and analyzed using IMARIS software (Bitplane)[11]. For the analysis of age-dependent microglial COX2^+ CX3CR1^+ cells in WT and APP/PS1 mice, COX2 (rabbit, 1:100, Abcam, ab15191) and CX3CR1 (mouse, 1:100, BioLegend, 149008) antibody were used and the images were acquired on Alexa 488 and APC Channel with performed using Operetta CLS and Analysis Software 4.5 (Perkin-Elmer). […]

[6] = read-out: KM of acetyl-CoA binding to SphK1

T1 sequence (Q9NYA1 whole entry R185A): as the sequence (Q9NYA1 whole entry R24A) above, with A24R, R185A counted along it

Row | SMILES | Kcat of acetyl-CoA binding to SphK1 [1] [s⁻¹] | Km [1, 6] [µM] | Kcat of acetyl-CoA binding to SphK1 [2] [s⁻¹] | Km [2, 6] [µM] | Kcat of acetyl-CoA binding to SphK1 [3] [s⁻¹] | Km [3, 6] [µM] | Kcat of acetyl-CoA binding to SphK1 [4] [s⁻¹] | Km [4, 6] [µM] | morphology of non-plaque-associated microglia ([5]; APP/PS1 vs N-AS-treated APP/PS1, Additional Fig. 2 of peer review file) | morphology of microglia surrounding Aβ ([5]; N-AS vs vehicle APP/PS1)
1 | CC(=O)SCCNC(=O)CCNC(=O)[C@H](O)C(C)(C)COP(=O)(O)OP(=O)(O)OC[C@H]1O[C@@H](n2cnc3c(N)ncnc32)[C@H](O)[C@@H]1OP(=O)(O)O [Acetyl-CoA, acetyl-CoA] | 0.000237 | 22.8 | 0.000273 | 14.4 | 0.000203 | 40.4 | 0.000305 | 15.4 | – | –
2 | CCCCCCCCCCCCC/C=C/[C@@H](O)[C@H](CO)NC(C)=O [N-AS, N-((2S,3R,E)-1,3-Dihydroxyoctadec-4-en-2-yl)acetamide] | – | – | – | – | – | – | – | – | did not differ between the groups | phagocytic morphology (ameboid microglial morphology) was more evident
